Reference: paper PMC8299157 (Antiviral Research, 2021)
Where a name gives a salt, the structure may show the parent alone. Read-outs that look alike come from different tables or passages of the source.

How the values were obtained:
[1] = target: nsp14 (Severe acute respiratory syndrome coronavirus 2, UniProt P0DTD1); format: binding, SARS-CoV-2; conditions: 100 μM inhibitor; for Inhibitor type (targeted binding site): from both FA competition assays
[2] = target: human N7-MTase RNMT-RAM (Homo sapiens, UniProt O43148); test: Py-FLINT N7-MTase inhibition assay; format: biochemical; conditions: for IC50 Py-FLINT (RNMT-RAM): 2 μM Py-FLINT probe, 20 μM SAM, 20 nM RNMT-RAM
Chain of human N7-MTase RNMT-RAM (O43148 whole entry): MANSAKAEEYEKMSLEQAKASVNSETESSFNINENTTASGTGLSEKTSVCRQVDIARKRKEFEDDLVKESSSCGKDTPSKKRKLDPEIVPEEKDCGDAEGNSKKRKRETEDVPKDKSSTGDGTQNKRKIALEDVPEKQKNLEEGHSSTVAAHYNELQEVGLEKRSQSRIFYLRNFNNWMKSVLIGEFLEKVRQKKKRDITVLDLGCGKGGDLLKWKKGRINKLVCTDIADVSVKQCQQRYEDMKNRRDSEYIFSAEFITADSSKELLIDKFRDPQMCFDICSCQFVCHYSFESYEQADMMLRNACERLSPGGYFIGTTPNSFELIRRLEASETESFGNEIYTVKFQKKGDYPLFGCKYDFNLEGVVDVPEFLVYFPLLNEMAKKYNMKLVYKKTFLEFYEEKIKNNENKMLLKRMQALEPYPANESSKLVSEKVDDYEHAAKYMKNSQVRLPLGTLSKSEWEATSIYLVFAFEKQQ
Chain of human N7-MTase RNMT-RAM (Q9BTL3 whole entry partner): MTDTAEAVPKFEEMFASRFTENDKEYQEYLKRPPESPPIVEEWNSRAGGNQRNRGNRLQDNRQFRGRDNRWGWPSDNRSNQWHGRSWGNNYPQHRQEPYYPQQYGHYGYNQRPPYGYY

[3] = tested on: SARS-CoV-2; format: cell-based; conditions: for EC50: read-out: EC50 Antiviral assay
[4] = in vitro; conditions: human
[5] = target: nsp14 N7-MTase (Severe acute respiratory syndrome coronavirus 2, UniProt P0DTD1); test: RP HPLC inhibition study of Gp3A N7-methylation; format: biochemical, SARS-CoV-2
[6] = target: SARS-CoV-2 nsp14 N7-MTase (Severe acute respiratory syndrome coronavirus 2, UniProt P0DTD1); test: Py-FLINT N7-MTase inhibition assay; format: biochemical

Structure (SMILES) | Inhibitor type (targeted binding site) [1] | IC50 [2] [µM] | CC50/EC50 Selectivity index ([3]; Huh 7 cells) | CC50 [4] [µM] | further results
Clc1cccc(/C=C/c2nn3c(-c4ccco4)nnc3s2)c1 [OI2, (E)-6-(3-Chlorostyryl)-3-(furan-2-yl)-[1,2,4]triazolo[3,4-b][1,3,4]thiadiazole] | bound by nsp14 within the nucleotide binding pocket | > 100 | not active | 71.3 ± 5.9 | IC50 Py-FLINT (RNMT-RAM) [2]: no human N7-MTase inhibition
CC(=O)OC[C@H]1O[C@@H]([S-])[C@H](OC(C)=O)[C@@H](OC(C)=O)[C@@H]1OC(C)=O.CCP(CC)CC.[Au+] [FI9, Auranofin] | bound by nsp14 within the nucleotide binding pocket |  |  |  | IC50 Py-FLINT (RNMT-RAM) [2]: no human N7-MTase inhibition; EC50 [3]: > 100 µM
Nc1ncnc2c1ncn2[C@@H]1O[C@H](C[C@@H](N)CC[C@H](N)C(=O)O)[C@@H](O)[C@H]1O [Sinefungin] |  | 0.22 ± 0.02 |  | > 100 | 
COC(=O)c1c(NC(=O)c2cc3ccccc3o2)sc(C)c1C [OI1, Methyl 2-[(1-benzofuran-2-ylcarbonyl)amino]-4,5-dimethylthiophene-3-carboxylate] | bound by nsp14 within the nucleotide binding pocket | > 100 | not active | > 100 | IC50 Py-FLINT (RNMT-RAM) [2]: no human N7-MTase inhibition
N.N.N.N.N.N.N.N.N.N.N.N.N.N.[Cl-].[Cl-].[Cl-].[Cl-].[Cl-].[Cl-].[O-2].[O-2].[Ru+3].[Ru+3].[Ru+4] [LI6, Ruthenium red] |  |  |  |  | inhibition of m7Gp3A formation (RP HPLC) [5]: lower potency
Oc1c(Cl)cc(Cl)c(Cl)c1Cc1c(O)c(Cl)cc(Cl)c1Cl [FI11, Hexachlorophene] | bound by nsp14 within the nucleotide binding pocket | 8 ± 3.2 |  |  | CC50/EC50 Selectivity index [3]: not active
O=c1c(O)c(-c2cc(O)c(O)c(O)c2)oc2cc(O)cc(O)c12 [LI8, Myricetin] |  | 3.57 ± 0.36 |  | 41.6 ± 7.1 | 
NCCOc1cc(C(=O)Nc2cc(OCCN)c3ccccc3n2)nc(C(=O)Nc2cc(OCCN)c3ccccc3n2)c1 [LI3, Pyridostatin xCF3COO^-] |  | 3.1 | 16.6 ± 6.1 | 59.3 ± 21.6 | FA values in both binding assays and control sample [1]: high FA values in both assays as well as in the control sample; p (Hill slope) ([6]; compounds selected from LOPAC1280 library (Table S3)): 18.1; inhibition of m7Gp3A formation (RP HPLC) [5]: lower potency; EC50 [3]: 3.58 ± 0.16 µM; EC50 ([3]; listed as Pyridostatin): < 50 µM
Nc1c(S(=O)(=O)O)cc(Nc2ccc(Nc3nc(Cl)nc(Nc4cccc(S(=O)(=O)O)c4)n3)c(S(=O)(=O)O)c2)c2c1C(=O)c1ccccc1C2=O [LI4, Reactive Blue 2] |  | 1.5 ± 0.28 |  | 52.6 ± 10.2 | EC50 [3]: 16.3 ± 0.3 µM; EC50 ([3]; listed as Reactive Blue 2): < 50 µM
O=c1c2ccccc2[se]n1-c1ccccc1 [FI6, Ebselen] |  | 23.8 ± 1.3 |  |  | 
O=C1c2c(O)ccc(O)c2C(=O)c2c(NCCNCCO)ccc(NCCNCCO)c21 [LI5, Mitoxantrone 2HCl] |  | 3.92 ± 0.21 | not active | < 0.04 | FA values in both binding assays and control sample [1]: high FA values in both assays as well as in the control sample; inhibition of m7Gp3A formation (RP HPLC) [5]: lower potency
Cc1cc(-c2ccc(/N=N/c3ccc4c(S(=O)(=O)O)cc(S(=O)(=O)O)c(N)c4c3O)c(C)c2)ccc1/N=N/c1ccc2c(S(=O)(=O)O)cc(S(=O)(=O)O)c(N)c2c1O [FI7, Evans Blue] |  | 0.33 ± 0.05 | 1.15 ± 0.04 | 35.6 ± 1 | EC50 [3]: 31 ± 0.9 µM
O=c1cc(-c2ccccc2)oc2cc(O)c(O)c(O)c12 [baicalein] |  |  |  |  | inhibition of reaction progress in library screening ([6]; 50 μM library compound): did not observe such activity
CC(C)N(CCC(=O)c1ccc2ccccc2c1)Cc1ccccc1 [LI7, ZM 39923 HCl] | bound by nsp14 within the nucleotide binding pocket | 15.9 ± 3.3 | not active | 12.2 ± 0.6 | 
